Reference: ChEMBL document CHEMBL3612033, “Synthesis of 3,4-diaminobenzoyl derivatives as factor Xa inhibitors” (Eur J Med Chem, 2015)

Legend:
[1] = biological target: T1, Coagulation factor X (Oryctolagus cuniculus) (UniProt O19045); test: Inhibition of F10a in rabbit plasma assessed as ratio of compound prothrombin time to vehicle control prothrombin time at 100 nM after 2 mins by automatic coagulation analyser
T1 sequence (whole entry): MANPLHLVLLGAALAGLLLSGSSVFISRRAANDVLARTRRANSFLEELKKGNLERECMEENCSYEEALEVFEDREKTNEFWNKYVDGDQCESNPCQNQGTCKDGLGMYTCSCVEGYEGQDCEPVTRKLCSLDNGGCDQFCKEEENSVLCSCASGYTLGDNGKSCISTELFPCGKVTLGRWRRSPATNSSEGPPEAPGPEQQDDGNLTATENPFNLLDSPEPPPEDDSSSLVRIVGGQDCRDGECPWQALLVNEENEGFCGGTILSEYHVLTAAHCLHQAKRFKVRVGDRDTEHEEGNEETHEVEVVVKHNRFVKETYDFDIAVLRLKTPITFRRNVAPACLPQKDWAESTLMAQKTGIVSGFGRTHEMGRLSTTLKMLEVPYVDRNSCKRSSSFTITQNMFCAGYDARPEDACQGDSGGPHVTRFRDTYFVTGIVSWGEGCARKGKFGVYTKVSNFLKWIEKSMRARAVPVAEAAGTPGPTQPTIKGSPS

Coagulation factor X = Coagulation factor X (Homo sapiens, UniProt P00742); test: Inhibition of human F10a using S-2765 as substrate preincubated for 10 mins followed by substrate addition by microplate reader analysis
Coagulation factor X, sequence (P00742 41-179 limits assumed): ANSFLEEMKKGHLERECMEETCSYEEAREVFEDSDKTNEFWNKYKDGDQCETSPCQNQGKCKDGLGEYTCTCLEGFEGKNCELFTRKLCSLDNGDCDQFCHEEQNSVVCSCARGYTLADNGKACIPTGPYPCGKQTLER
Coagulation factor X, sequence (P00742 235-488 limits assumed): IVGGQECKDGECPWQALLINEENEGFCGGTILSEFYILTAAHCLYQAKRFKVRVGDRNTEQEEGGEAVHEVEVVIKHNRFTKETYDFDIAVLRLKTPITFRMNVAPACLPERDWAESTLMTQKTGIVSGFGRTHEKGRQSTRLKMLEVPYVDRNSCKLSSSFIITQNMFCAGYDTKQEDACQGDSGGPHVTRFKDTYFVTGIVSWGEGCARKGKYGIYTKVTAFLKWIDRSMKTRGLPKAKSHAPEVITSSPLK

Trypsin = Trypsin (Homo sapiens, UniProt P07477+P07478+P35030); test: Inhibition of trypsin (unknown origin) using S-2222 as substrate; assay type: protein assay
Prothrombin = Prothrombin (Bos taurus, UniProt P00735); test: Inhibition of bovine plasma thrombin using S-2238 as substrate

Row | SMILES | Ratio [1] | other results
1 | NC(=O)c1ccc(NC(=O)c2ccc(-n3ccccc3=O)cc2)c(NC(=O)c2ccc(F)cc2)c1 | 1.27 | –
2 | NC(=O)c1ccc(NC(=O)c2ccc(-n3ccccc3=O)cc2)c(NC(=O)c2ccc(Cl)s2)c1 | 1.33 | –
3 | NC(=O)c1ccc(NC(=O)c2ccc(-n3ccccc3=O)cc2)c(NC(=O)c2ccc(Br)cc2)c1 | – | IC50 (Coagulation factor X): 0.0259 µM
4 | NC(=O)c1ccc(NC(=O)c2ccc(-n3ccccc3=O)cc2)c(NC(=O)c2ccc(NC=O)cc2)c1 | 1.54 | –
5 | NC(=O)c1ccc(NC(=O)c2ccc(-n3ccccc3=O)cc2)c(NC(=O)c2ccc3ncoc3c2)c1 | 1.66 | –
6 | CC(=O)Nc1ccc(C(=O)Nc2cc(C(N)=O)ccc2NC(=O)c2ccc(-n3ccccc3=O)cc2)cc1 | 1.72 | IC50 (Coagulation factor X): 0.0156 µM
7 | NC(=O)c1ccc(NC(=O)c2ccc(-n3ccccc3=O)cc2)c(NC(=O)c2ccc(Cl)nc2)c1 | 1.27 | –
8 | NC(=O)c1ccc(NC(=O)c2ccc(-n3ccccc3=O)cc2)c(NC(=O)c2ccc(Cl)cc2)c1 | 1.88 | –
9 | NC(=O)c1ccc(NC(=O)c2ccc(-n3ccccc3=O)cc2)c(NC(=O)c2ccc(Cl)c(Cl)c2)c1 | – | IC50 (Coagulation factor X): 0.0065 µM

Second part, led by results:

Row | Ratio [1] | SMILES | other results
10 | 2.06 | COc1cc(C(=O)Nc2cc(C(N)=O)ccc2NC(=O)c2ccc(-n3ccccc3=O)cc2)cc(OC)c1OC | IC50 (Coagulation factor X): 0.0286 µM
11 | 1.94 | COc1ccc(C(=O)Nc2cc(C(N)=O)ccc2NC(=O)c2ccc(-n3ccccc3=O)cc2)cc1OC | IC50 (Trypsin): > 100 µM; IC50 (Prothrombin): > 100 µM; IC50 (Coagulation factor X): 0.0171 µM
12 | 1.15 | COc1cc(C(=O)Nc2cc(C(=O)O)ccc2NC(=O)c2ccc(-n3ccccc3=O)cc2)cc(OC)c1OC | –
13 | 2.1 | COc1cc(C(=O)Nc2cc(C(N)=O)ccc2NC(=O)c2ccn(-c3ccccc3)c(=O)c2)cc(OC)c1OC | –
14 | 1.21 | CCOC(=O)c1ccc(NC(=O)c2ccc(-n3ccccc3=O)cc2)c(NC(=O)c2cc(OC)c(OC)c(OC)c2)c1 | –
15 | 1.27 | COc1cc(C(=O)Nc2cc(C(N)=O)ccc2NC(=O)c2ccc(N3CCCC3=O)cc2)cc(OC)c1OC | –
16 | 1.07 | COc1cc(C(=O)Nc2ccc(C(N)=O)cc2NC(=O)c2ccc(-n3ccccc3=O)cc2)cc(OC)c1OC | –
17 | 1.16 | COc1cc(C(=O)Nc2cc(C(N)=O)ccc2NC(=O)c2ccc(N3CCCCC3=O)cc2)cc(OC)c1OC | –
18 | 1.87 | COc1ccc(C(=O)Nc2cc(C(N)=O)ccc2NC(=O)c2ccc(-n3ccccc3=O)cc2)cc1 | –
